Laboratory results taken from patent publication US6458585B1, “Cytokine-free culture of dendritic cells” (Nexell Therapeutics Inc., priority 1996, dated 2002).

Columns and labels:
Format in all cases: cell-based, human
Bulk PBMNC [1] = assay: Flow cytometry phenotype of bulk PBMNC cultures with non-cytokine additives; conditions: Day 7
Description: (§1) Culture of Bulk PBMNC: PBMNC cells were cultured in X-VIVO 15™ supplemented with 2 mM L- glutamine. Cultures were initiated at 5×^05 cells/ml in PL2417 gas-permeable containers (20 ml). GM-CSF and IL-4 were added to the cultures at final concentrations of 50 ng/ml and 1000 U/ml or non-cytokine additives such as Vitamin D3 at 2.5 uM, Vitamin E at 0.1%, Linoleic Acid at 5 ug/ml, or Ca++ Ionophore at 10 mM. Addition and subtraction of cells, media, and growth factors to and from PL2417 gas-permeable containers was accomplished by spiking a Sampling Site Coupler into the sample port of the container followed by use of syringes and needles. Cells were cultured in a 5% CO2, ambient O2, 37° C. humidified incubator for 7 days.
Cultured cells were phenotyped as described in Example 1 above for the following markers: […]

Bulk PBMNC [2] = assay: Concentration, viability and total cells of bulk PBMNC cultured with non-cytokine additives in PL2417; conditions: Day 7, PL2417 container, X-VIVO 15
Description: as §1
The next set of experiments evaluated only 4 of the non-cytokine additives. These 4 were determined to have the highest ability to induce DC generation from PBMNC. The 4 non-cytokine additives examined were Vitamin D3, Vitamin E, Ca^++ Ionophore, and Linoleic Acid. These additives were compared to GM-CSF/IL-4. Bulk PBMNC were initiated at 5×10^5 cells/ml in X-VIVO 15™ using PL2417 gas-permeable containers (20 ml per container).

T cells = assay: Allogeneic MLR with bulk PBMNC cultures grown with non-cytokine additives
Description: MLR's were setup using T cells as responders and dendritic cell enriched cultures as antigen presenters. Sheep red blood cells were prepared and used to erythrocyte rosette T cells from a MNC preparation as described in “Current Protocols in Immunology”, John Wiley & Sons Inc, 1995. Vol. 2, 7.2.1-7.2.4. Erythrocyte+(E+ ) T cells were resuspended to 1×10^6 cells/ml in RPMI 1640/10% FCS. Dendritic cells were resuspended to 1×10^6 cells/ml in RPMI 1640/10% FCS and mitomycin C was added at 25 ug/ml to inhibit proliferation. The tubes were incubated at 37° C. for 30 min. then washed 3 times with PBS-CMF/1% HA. […] […] The appropriate control wells were also prepared. Plates were incubated for 4 or 5 days at 37° C.
Each well was pulsed with 1 uCi of ^3H-thymidine in RPMI 1640/10% FCS. Plates were incubated overnight at 37° C.
Plates were harvested onto glass fiber filter strips using a cell harvester. Discs were placed into scintillation vials containing scintillation cocktail and samples were counted using a beta radiation counter.
(§2) Cytospin slide preparation, Wright-Geimsa and immunohistochemical staining of the cultured cells were conducted as described in Example 1 and 2 above. Mixed lymphocyte reactions (MLR's) were setup using T cells (responders) and dendritic cell enriched cultures (stimulators) from bulk PBMNC cultures, as described above in Example 1.
The functional capacity of cultured cells to induce T cell proliferation was measured in an allogeneic MLR. […] At the greatest ratio of 1:100, the differences in capacity to induce T cell proliferation is marginal between the GM-CSF/IL-4 cultured cells and the non-cytofine additive cultured cells.

Bulk PBMNC [3] = assay: Morphologically identified dendritic cells in bulk PBMNC cultures with non-cytokine additives
Description: (§3) Cytofunnels were attached to microscope slides. 50,000 to 100,000 cells were removed from each culture and resuspended in approximately 100 to 200 ul of PBS-CMF. Slides were placed in the Cytospin® centrifuge and spun at 100 rpm for 4 min. Cytofunnels were removed from the slides and the slides were air dried for 1 minute. Ten drops of Wright-Geimsa stain were placed onto each slide and allowed to fix for 1 to 2 minutes. Ten drops of water were added to each slide and allowed to sit for 2 to 4 minutes. The slides were rinsed and air dried.
(§4) Reading of Cytospin Slides: Slides were read under phase contrast microscopy, 40× and 60× oil magnification. One hundred cells were identified and characterized morphologically as either dendritic cells or non-dendritic cells (lymphocytes and monocyte, or CD34+-derived cells in those cases). Digital images were taken using a color monitor and color video printer.
as §1, §2

Bulk PBMNC [4] = assay: S100+ cells in bulk PBMNC cultures with non-cytokine additives; conditions: for % S100+: Day 7; for TOTAL # OF S100+: Day 7, projected in culture; for percent of S100+ cells: day 7, average
Description: (§5) Immunocytochemical staining: PBS (phosphate buffered saline) was made by dissolving 5 PBS tablets into 1000 ml millipore water. Cytospin slides were soaked in PBS. Endogenous peroxidase activity was blocked by treating slides with hydrogen peroxide/PBS (2 ml 30% H2O2+30 ml PBS) for 10 min. Slides were rinsed with PBS one time. Non-specific binding sites were blocked by incubating with normal serum matching source of secondary antibody (i.e. if secondary antibody is biotinylated goat-anti-mouse, used normal goat serum) at room temp. for 15 min. in a humidified environment. Excess serum was shaken from slides and placed 100 ul of primary antibody on slide, making sure cells are covered with liquid and incubated in humidified environment, room temp, for one hour. Negative control slides were incubated with normal serum for this hour. Slides were rinsed 3 times with PBS. Slides were incubated with biotinylated antibody reactive against the primary antibody (i.e. if primary antibody is mouse-anti-human, use a biotinylated goat-anti-mouse antibody) for 1 hour in humidity. Slides were rinsed 3 times with PBS. Slides were incubated with streptavidin-peroxidase, 2 drops/slide, for 30 min. in humidity. Slides were rinsed 3 times with PBS.
(§6) Chromagen solution was made with 5 ml millipore water+2 drops of chromagen buffer+1 drop of concentrated chromagen+1 drop of substrate, and 4-5 drops were added to each slide. […] Slides were counterstained with hematoxylin for about 5 min, or until cell nuclei were stained purple. Cells were rinsed with tap water and allowed to air dry. Slides were covered with crystal mount and oven dried at 80 degrees for 15 min. Slides were allowed to cool, then coversliped with mounting medium.
as §1, §2
The S100 protein is a nerve cell protein that has been associated with dendritic cells. In Table 47, at day 7 of culture, the highest percent of S100+ cells was present in the GM-CSF/IL-4 culture (13%).

adherent PBMNC [5] = assay: S100 immunohistochemistry of plastic adherent cells cultured with non-cytokine additives; conditions: for percentage of S100+ cells: without GM-CSF added to additives
Description: as §5, with “Endogenous peroxidase activity was blocked by treating slides with hydrogen peroxide/PBS (2 ml 30% H2O2+30 ml PBS) for 10 min.” left out
as §6
(§7) Enrichment and Culture of Adherent Cells Using Polystyrene Tissue Culture Plates: PBMNC were resuspended in culture media (X-VIVO 15™+10% autologous serum) at 2×10^6 cells/ml. Cells were placed into 48 well polystyrene tissue culture plates […] and incubated for 2 hours in a 5% CO2, ambient O2, 37° C. humidified incubator. Non-adherent cells were removed from the plates then wells were rinsed with X-VIVO 15™ containing no serum. Cells remaining in the wells were adherent cells. These cells were cultured by adding 2 ml of X-VIVO 15™ to each well plus GM-CSF and IL-4 at final concentrations of 50 ng/ml and 1000 U/ml or the following: cAMP at 0.5 mM, dibutyryl cAMP at 0.1 mM, NaF at 0.25 mM, theophylline at 0.5 mM, PGE at 0.1 mM, Vitamin D3 at 2.5 uM, Vitamin E at 0.1%, Retinoic Acid at 10^−6 M, PMA at 1 pM, Linoleic Acid at 5 ug/ml, or Ca^++ Ionophore at 10 mM. Furthermore, cells were also cultured with the above non-cytokine additives plus GM-CSF at 50 ng/ml. Cells were cultured in a 5% CO2, ambient O2, 37° C. humidified incubator for 7 days.
as §2
(§8) Results: In the set of experiments using plastic adherent cells grown in polystyrene tissue culture plates, a Day 0 analysis of the cells was not performed. However, these cultures were analyzed for the presence of DC on days 4 and 7. Analysis perfomed were cell counts, viability via propidium iodide, morphology under Wright-Geimsa staining, and immunohistochemical staining using an anti-S100 antibody.

adherent PBMNC [6] = assay: DC morphology (Wright-Geimsa) of plastic adherent cells cultured with non-cytokine additives; conditions: day 7; without GM-CSF added to additives
Description: as §3, §4, §7, §2, §8

SMILES | TOTAL CELLS (Bulk PBMNC [2]) [E + 06] | VIABILITY (Bulk PBMNC [2]) [%] | % S100+ (Bulk PBMNC [4]) [%] | TOTAL # OF S100+ (Bulk PBMNC [4]) [E + 05] | percent of S100+ cells (Bulk PBMNC [4]) | percentage of S100+ cells (adherent PBMNC [5]; day 4) [%] | fold fewer DC (average total number projected in culture) than GM-CSF/IL-4 cultures (Bulk PBMNC [3]; day 7) | other results
Cc1c(C)c2c(c(C)c1O)CCC(C)(CCCC(C)CCCC(C)CCCC(C)C)O2 (mixture of isomers) [VIT E] | 7.52 | 82.41 | 8.00 | 6.01 |  |  |  | Percent of Phenotype in Culture: CD1a-PE (Bulk PBMNC [1]): 0.08%; Percent of Phenotype in Culture: CD14-PE (Bulk PBMNC [1]): 0.73%; Percent of Phenotype in Culture: CD80-PE (Bulk PBMNC [1]): 1.97%; Percent of Phenotype in Culture: CD86-PE (Bulk PBMNC [1]): 2.75%; CELLS/ML (Bulk PBMNC [2]): 1.87E + 06 cells/ml; Allogeneic MLR. Increase Over Background Proliferation (T cells; Day 7, Cell Culture:T cell Ratio 1:1): 6.3; Allogeneic MLR. Increase Over Background Proliferation (T cells; Day 7, Cell Culture:T cell Ratio 1:10): 2.6; Allogeneic MLR. Increase Over Background Proliferation (T cells; Day 7, Cell Culture:T cell Ratio 1:100): 1.7; % DC (Bulk PBMNC [3]; Day 7): 4.00%; TOTAL # OF DC (Bulk PBMNC [3]; Day 7, projected in culture): 2.82E+05
Cc1c(C)c2c(c(C)c1O)CCC(C)(CCCC(C)CCCC(C)CCCC(C)C)O2 (mixture of isomers) [Vitamin E] |  |  |  |  | equivalent average percentages | 19 |  | average total number of morphologically identified DC projected in culture (Bulk PBMNC [3]; day 7): lowest total number
CNc1ccc2oc(C[C@H]3O[C@@]4(CC[C@H]3C)O[C@H]([C@H](C)C(=O)c3ccc[nH]3)[C@H](C)C[C@H]4C)nc2c1C(=O)O [Ca^++ Ionophore, A23187] |  |  |  |  | equivalent average percentages | 17 | approximately 4 fold | morphologically identified DC (adherent PBMNC [6]): next highest percentages; percentage of S100+ cells (adherent PBMNC [5]; day 7): next highest percentages
C=C1CC[C@H](O)C/C1=C/C=C1\CCC[C@]2(C)[C@@H]([C@H](C)CCCC(C)C)CC[C@@H]12 [Vitamin D3] |  |  |  |  | lowest average percent |  | approximately 4 fold | percentages of S100+ cells (adherent PBMNC [5]; day 7, additive added to GM-CSF 50 ng/ml): greatest percentages of S100+ cells
CCCCC/C=C\C/C=C\CCCCCCCC(=O)O [Linoleio Acid] | 9.18 | 87.77 | 8.50 | 7.75 |  |  |  | 
